# Reference: patent US12465605B2, “Methods and materials for gender-dependent treatment of cardiovascular dysfunction” (Mayo Foundation for Medical Education and Research, priority 2019, dated 2025)
# Tests used:
# [1] = system: patients with mild-to-moderate calcific aortic valve stenosis; assay: Phase II clinical trial, six months, progression of valve disease; type: in vivo, human
# Description: Phase II clinical trial design: Patients with mild-to-moderate calcific aortic valve stenosis (valve area between 1.0 cm^2 and 2.0 cm^2) with well-preserved left ventricular function (ejection fraction>50%) and significant valve calcification (calcium levels>300 units by computed tomography scanning) were recruited for participation in a randomized, double-blind, placebo-controlled trial. After screening, patients were randomized into two groups: • (1) placebo treatment for a minimum of 6 months, or • (2) ataciguat treatment for a minimum of 6 months Patients underwent computed tomography measurements of aortic valve calcification, echocardiographic assessments of ventricular and aortic valve function, and DEXA scanning for assessment of systemic bone mineral density at baseline and at six month intervals after initiation of treatment.
# LPA studies in humans with aortic valve calcification: Human plasma LPA levels were measured using a colorimetric, sandwich/quantitative ELISA assay (AB212165) after samples were diluted in diluent buffer. Computed tomography scanning was performed using clinical grade, high-resolution scanning methods that are well-established for assessment of aortic valve calcification. The calcium burden was measured from 3-dimensional, multi-slice images and expressed as arbitrary units (AU).
# To determine whether ataciguat could slow progression of FCAVS, a randomized, double-blind, placebo-controlled study was conducted in patients with mild/moderate valvular disease. Key eligibility criteria for the study included valvular calcium levels above 300 AU, a valve area between 1.0 and 2.0 cm^2, an ejection fraction greater than 50%, and absence of congenital heart valve disease (full inclusion/exclusion criteria is shown in TABLE 1). Patients were randomized to placebo or ataciguat treatment for six months, and a subset of patients received treatment for 12 months. Importantly, there was no difference in measured hemodynamic, blood biochemistry, drug treatment, or comorbidity indices between treatment groups at baseline. Given the relatively short duration of follow-up, the primary outcome variable was the change in valvular calcium over time. Secondary and tertiary outcomes were aortic valve and left ventricular function, respectively.
# canonical BMP signaling = assay: BMP2-induced signaling in aortic valve interstitial cells; type: cell-based, mouse; details: cells treated with BMP2 with or without ataciguat
# Experimental: (§1) To confirm that ataciguat effectively activated sGC in cells, mouse aortic valve interstitial cells (mVICs) were isolated from C57BL6/J mice treated with ataciguat or other sGC agonists as internal controls. […] To determine whether ataciguat could attenuate signaling cascades central to the initiation and progression of valve calcification in vitro, cells were treated with BMP2 with or without ataciguat. In these studies, ataciguat reduced phospho-SMAD1/5/8 signaling (e.g., canonical BMP signaling) as well as expression of osteogenic genes induced by BMP2 (e.g., osterix).
# [2] = system: LPA-induced BMP signaling; assay: LPA-induced BMP signaling (Osterix mRNA) in aortic valve interstitial cells; type: cell-based; details: 18:0 lyso-PA with ataciguat
# Experimental: In vitro cell culture studies: Aortic valve interstitial cells were isolated using an outgrowth method, and were expanded in DMEM/F-10 medium with 10% FBS and studied in passages 2-10. Cells were treated for 24 hours under each experimental condition, at which point mRNA was harvested using lysis buffer. After mRNA isolation and reverse transcription, gene expression was measured using quantitative real-time RT-PCR and Taqman primers. Changes in gene expression were assessed by the ddCt method and expressed as fold-change normalized to control conditions.
# Additional studies were conducted in aortic valve interstitial cells to examine the effects of ataciguat on LPA-induced BMP signaling and BMP target gene expression. Cells were treated with 18:0 lyso-PA, with or without ataciguat, and Osterix mRNA levels were determined.
# sGC = target: T1, sGC (Mus musculus, UniProt O54865); assay: sGC signaling (phospho-VASP239) in mouse aortic valve interstitial cells; type: cell-based; details: otherwise naïve mVICs, vs vehicle-treated cells
# T1 construct: endogenous in cells; host or cells: primary mouse aortic valve interstitial cells (mVICs) from C57BL6/J mice
# T1 sequence (O54865 1-620): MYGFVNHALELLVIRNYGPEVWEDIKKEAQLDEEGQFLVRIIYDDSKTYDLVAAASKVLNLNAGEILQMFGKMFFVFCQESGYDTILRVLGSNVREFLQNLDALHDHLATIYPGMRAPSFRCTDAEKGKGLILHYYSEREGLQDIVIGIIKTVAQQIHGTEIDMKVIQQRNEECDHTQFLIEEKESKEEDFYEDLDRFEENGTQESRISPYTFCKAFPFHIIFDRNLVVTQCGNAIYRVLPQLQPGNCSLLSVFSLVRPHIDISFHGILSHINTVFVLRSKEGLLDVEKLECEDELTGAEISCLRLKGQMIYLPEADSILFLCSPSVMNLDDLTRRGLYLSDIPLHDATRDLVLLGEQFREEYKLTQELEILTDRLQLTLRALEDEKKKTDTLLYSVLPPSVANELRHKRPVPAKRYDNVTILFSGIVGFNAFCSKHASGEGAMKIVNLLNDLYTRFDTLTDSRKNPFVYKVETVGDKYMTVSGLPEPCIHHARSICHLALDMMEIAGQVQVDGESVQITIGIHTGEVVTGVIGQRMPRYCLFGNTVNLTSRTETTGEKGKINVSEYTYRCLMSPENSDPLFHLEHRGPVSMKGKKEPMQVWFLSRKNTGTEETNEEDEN
# T1 sequence (Q9ERL9 1-691 partner): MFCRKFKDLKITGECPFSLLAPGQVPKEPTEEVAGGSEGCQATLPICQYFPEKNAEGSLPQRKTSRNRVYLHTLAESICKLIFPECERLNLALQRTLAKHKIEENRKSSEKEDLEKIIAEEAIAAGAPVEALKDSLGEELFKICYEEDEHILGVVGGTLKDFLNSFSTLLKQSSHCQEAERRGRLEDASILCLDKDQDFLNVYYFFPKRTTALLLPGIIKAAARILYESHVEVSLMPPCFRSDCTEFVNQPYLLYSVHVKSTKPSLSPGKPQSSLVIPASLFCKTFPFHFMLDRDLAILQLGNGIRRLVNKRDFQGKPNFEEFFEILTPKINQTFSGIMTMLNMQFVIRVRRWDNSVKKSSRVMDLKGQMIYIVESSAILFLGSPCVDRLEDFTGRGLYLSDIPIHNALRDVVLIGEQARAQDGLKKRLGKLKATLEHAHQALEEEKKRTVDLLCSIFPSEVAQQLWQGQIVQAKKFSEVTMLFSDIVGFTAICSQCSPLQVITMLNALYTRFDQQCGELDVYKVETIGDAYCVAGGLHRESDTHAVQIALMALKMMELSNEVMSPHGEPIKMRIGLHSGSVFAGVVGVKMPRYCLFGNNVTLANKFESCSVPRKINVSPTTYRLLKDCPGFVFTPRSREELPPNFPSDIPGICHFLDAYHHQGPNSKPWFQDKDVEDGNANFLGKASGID
# Experimental: as §1
# [3] = 200 mg/day, all subjects combined
# [4] = 200 mg/day, both sexes combined
smiles,measurement,setting,value
"O=C(Nc1ccc(S(=O)(=O)N2CCOCC2)cc1)c1cc(Cl)ccc1NS(=O)(=O)c1ccc(Cl)s1 [ataciguat, 5-chloro-2-[[(5-chloro-2-thienyl)sulfonyl]amino]-N-[4-(4-morpholinylsulfonyl)phenyl]-benzamide]","changes in aortic valve area, male versus female patients",[1]; 200 mg/day,therapeutic benefit was predominantly conferred to male patients
same,changes in peak transvalvular velocity,[1]; 200 mg/day,negligible impact
same,"aortic pulse pressure (index of arterial stiffness), seated",[1]; [3],attenuated
same,left ventricular diastolic function (E/e′ or E/A ratio),[1]; [3],attenuate further progression of diastolic dysfunction
same,left ventricular systolic function (ejection fraction or stroke volume),[1]; [3],prevent the decline in left ventricular function
same,changes in aortic valve area,[1]; [4],can attenuate progression of aortic valve dysfunction
same,progression of valve calcification,[1]; [4],significantly attenuated
same,left ventricular stroke volume,"[1]; 200 mg/day, female subjects",potential worsening
same,left ventricular systolic function,"[1]; 200 mg/day, female subjects",no consistent benefit
same,left ventricular diastolic function (E/e′ or E/A ratio),"[1]; 200 mg/day, females",negligible therapeutic benefit
same,pulse pressure,"[1]; 200 mg/day, females",no apparent therapeutic benefit
same,"progression of valve calcification, male versus female patients","[1]; 200 mg/day, male patients compared to females",much greater therapeutic benefit
same,left ventricular diastolic function (E/e′ or E/A ratio),"[1]; 200 mg/day, male subjects",predominant recipients of any therapeutic benefit
same,left ventricular systolic function (ejection fraction or stroke volume),"[1]; 200 mg/day, male subjects",improved left ventricular systolic function
same,pulse pressure,"[1]; males, compared to placebo",reduction in pulse pressure
same,aortic valve function vs baseline,[1]; p=0.24 vs baseline,did not worsen significantly
same,changes in valvular calcium in relation to baseline plasma LPA,[1]; patients with higher vs lower baseline plasma LPA,tended to receive greater therapeutic benefit
same,"expression of osteogenic genes induced by BMP2 (e.g., osterix)",canonical BMP signaling,reduced
same,phospho-SMAD1/5/8 signaling (canonical BMP signaling),canonical BMP signaling,reduced
same,LPA effect on expression of Osterix,[2],dramatically suppressed
same,sGC-dependent signaling (phospho-VASP^239 levels),sGC,significantly increased
